One experiment concerns OPM2. Description: Anti-proliferative effect (CellTiter-Glo, 72 h), OPM2. Type of experiment: cell-based. Particulars: OPM2 cells, median, read-out: IC50 antiproliferation assay OPM2 [M] (median). The gist of the method: (§1)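 CellTiter-Glo luminescence readout of viability, taken on a time-zero plate at day 0 and on treated plates after 72 h incubation at 37 °C in a humidified incubator. Reagent incubation 10 min before reading.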
For orientation: ATP-based viability assays read luminescence as a measure of living cells.

In another experiment the test system is MV-4-11. Description: Anti-proliferative effect (CellTiter-Glo, 72 h), MV-4-11. The format is cell-based. Particulars: MV-4-11 cells, median, read-out: IC50 antiproliferation assay MV-4-11 [M] (median). The gist of the method:
as §1

Structures can show the parent of a compound that is named as a salt. Where two headings read alike, the source gives them in different places. Where only a bound is given, the exact number is not on record here.

Regarding `Cc1c2c(nn1C)COCCCCn1c(C(=O)O)c(CCCOc3cccc4ccccc34)c3cccc-2c31` (racemic) [Example 1-36, (rac)-2,3-dimethyl-7-[3-(naphthalen-1-yloxy)propyl]-2,10,11,12,13,15-hexahydropyrazolo[4′,3′:9,10][1,6]oxazacycloundecino[8,7,6-hi]indole-8-carboxylic Acid], the IC50 in the experiment on OPM2 (Homo sapiens, OPM-2, 72 h) worked out at 1.01e-05 M. Turning to `Cc1nn(C)c2c1-c1cccc3c(CCCOc4cccc5ccccc45)c(C(=O)O)n(c13)CCCCOCC2` (racemic) [Example 017, (rac)-1,3-dimethyl-7-[3-(1-naphthyloxy)propyl]-10,11,12,13,15,16-hexahydro-1H-pyrazolo[4′,3′:9,10][1,6]oxazacyclododecino[8,7,6-hi]indole-8-carboxylic Acid], the IC50 in the experiment on OPM2 (Homo sapiens, OPM-2, 72 h) is 2.78e-05 M; in the experiment on OPM2 it was > 3.3e-05 M. As for `CC(C)c1c2c(nn1C)CN(C)CCCn1c(C(=O)O)c(CCCOc3cccc4ccccc34)c3cccc-2c31` (racemic) [Example 113, (rac)-7,10-dimethyl-1-[3-(naphthalen-1-yloxy)propyl]-11-(propan-2-yl)-4,5,6,7,8,10-hexahydropyrazolo[3′,4′:7,8][1,5]diazecino[9,10,1-hi]indole-2-carboxylic Acid], the IC50 in the experiment on OPM2 (Homo sapiens, OPM-2, 72 h) was determined as 1.42e-05 M. Take `CCc1c2c(nn1C)CN(C)CCCn1c(C(=O)O)c(CCCOc3cccc4ccccc34)c3cccc-2c31` (racemic) [Example 141, (rac)-11-ethyl-7,10-dimethyl-1-[3-(1-naphthyloxy)propyl]-4,5,6,7,8,10-hexahydropyrazolo[3′,4′:7,8][1,5]diazecino[9,10,1-hi]indole-2-carboxylic Acid]: the IC50 with OPM2 (Homo sapiens, OPM-2, 72 h) stood at 9.12e-06 M. The same measure, in the same setting: with `CCc1c2c(nn1C)CN(C)CCCn1c(C(=O)O)c(CCCOc3cccc4ccccc34)c3ccc(C)c-2c31` (racemic) [Example 144, (rac)-11-ethyl-7,10,12-trimethyl-1-[3-(1-naphthyloxy)propyl]-4,5,6,7,8,10-hexahydropyrazolo[3′,4′:7,8][1,5]diazecino[9,10,1-hi]indole-2-carboxylic Acid] the figure was 5.52e-06 M; with `CCc1c2c(nn1C)COCCCCn1c(C(=O)O)c(CCCOc3cccc4ccccc34)c3ccc(C)c-2c31` (racemic) [Example 153, (rac)-3-Ethyl-2,4-dimethyl-7-[3-(1-naphthyloxy)propyl]-2,10,11,12,13,15-hexahydropyrazolo[4′,3′:9,10][1,6]oxazacycloundecino[8,7,6-hi]indole-8-carboxylic Acid], 8.4e-06 M; with `CC(C)OCc1nn(C)c2c1-c1cccc3c(CCCOc4cccc5ccccc45)c(C(=O)O)n(c13)CCCCN(C)C2` (single isomer, unassigned) [Example 1-74, 1,14-dimethyl-7-[3-(naphthalen-1-yloxy)propyl]-3-[(propan-2-yloxy)methyl]-10,11,12,13,14,15-hexahydro-1H-pyrazolo[3′,4′:8,9][1,6]diazacycloundecino[10,11,1-hi]indole-8-carboxylic Acid], 1.6e-05 M. In the case of `Cn1nc(COc2ccc(N3CCN(C(=O)C4CC4)CC3)cc2)c2c1COCCCCn1c(C(=O)O)c(CCCOc3cccc4ccccc34)c3cccc-2c31` (single isomer, unassigned; enantiomer 1) [Example 1-22, 3-({4-[4-(cyclopropylcarbonyl)piperazin-1-yl]phenoxy}methyl)-1-methyl-7-[3-(naphthalen-1-yloxy)propyl]-1,10,11,12,13,15-hexahydropyrazolo[4′,3′:9,10][1,6]oxazacycloundecino[8,7,6-hi]indole-8-carboxylic Acid (Enantiomer 1)], in the experiment on OPM2, the IC50 was 2.56e-06 M. As to `Cc1nn(C)c2c1-c1cccc3c(CCCOc4cccc5ccccc45)c(C(=O)O)n(c13)CCCN(C)C2` (single isomer, unassigned; enantiomer 1) [Example 1-31, 7,9,11-trimethyl-1-[3-(naphthalen-1-yloxy)propyl]-4,5,6,7,8,9-hexahydropyrazolo[3′,4′:7,8][1,5]diazecino[9,10,1-hi]indole-2-carboxylic Acid-N-ethylethanamine Salt (Enantiomer 1)], the IC50 in the experiment with OPM2 was found to be 1.05e-05 M; with MV-4-11 (Homo sapiens, MV4-11, 72 h), 2.61e-06 M. Taken in the same sequence, the figures for `Cc1c2c(nn1C)COCCCCn1c(C(=O)O)c(CCCOc3cccc4ccccc34)c3cccc-2c31` (single isomer, unassigned; enantiomer 1) [Example 1-37, (+)-2,3-dimethyl-7-[3-(naphthalen-1-yloxy)propyl]-2,10,11,12,13,15-hexahydropyrazolo[4′,3′:9,10][1,6]oxazacycloundecino[8,7,6-hi]indole-8-carboxylic Acid (Enantiomer 1)] were 6.53e-06 M and 4.02e-06 M. For `CN1CCCn2c(C(=O)O)c(CCCOc3cccc4ccccc34)c3cccc(c32)-c2c(CN3CCOCC3)nn(C)c2C1` (single isomer, unassigned; enantiomer 1) [Example 1-43, (+)-7,9-dimethyl-11-(morpholin-4-ylmethyl)-1-[3-(naphthalen-1-yloxy)propyl]-4,5,6,7,8,9-hexahydropyrazolo[3′,4′:7,8][1,5]diazecino[9,10,1-hi]indole-2-carboxylic Acid (Enantiomer 1)], the IC50 was determined as 1.81e-05 M with OPM2 (Homo sapiens, OPM-2, 72 h) and 6.59e-06 M in the experiment with MV-4-11 (Homo sapiens, MV4-11, 72 h). As for `CN1CCCn2c(C(=O)O)c(CCCOc3cccc4ccccc34)c3cccc(c32)-c2c(COc3ccc(N4CCN(S(C)(=O)=O)CC4)cc3)nn(C)c2C1` (single isomer, unassigned; enantiomer 1) [Example 1-46, (+)-7,9-dimethyl-11-({4-[4-(methylsulfonyl)piperazin-1-yl]phenoxy}methyl)-1-[3-(naphthalen-1-yloxy)propyl]-4,5,6,7,8,9-hexahydropyrazolo[3′,4′:7,8][1,5]diazecino[9,10,1-hi]indole-2-carboxylic Acid (Enantiomer 1)], the IC50 in the experiment on OPM2 was 1.52e-06 M; in the experiment with MV-4-11 (Homo sapiens, MV4-11, 72 h), 7.2e-07 M. Turning to `Cc1nn(C)c2c1-c1cccc3c(CCCOc4cccc5cc(F)ccc45)c(C(=O)O)n(c13)CCCOC2` (single isomer, unassigned; enantiomer 1) [Example 047, 1-{3-[(6-fluoronaphthalen-1-yl)oxy]propyl}-9,11-dimethyl-5,6,8,9-tetrahydro-4H-pyrazolo[4′,3′:8,9][1,5]oxazecino[7,6,5-hi]indole-2-carboxylic acid-N-ethylethanamine Salt (Enantiomer 1)], the IC50 in the experiment on MV-4-11 was found to be 5.38e-06 M. For `COCCn1nc2c(c1CN1CCOCC1)-c1cccc3c(CCCOc4cccc5ccccc45)c(C(=O)O)n(c13)CCCN(C)C2` (single isomer, unassigned; enantiomer 1) [Example 057, 10-(2-methoxyethyl)-7-methyl-11-(morpholin-4-ylmethyl)-1-[3-(naphthalen-1-yloxy)propyl]-4,5,6,7,8,10-hexahydropyrazolo[3′,4′:7,8][1,5]diazecino[9,10,1-hi]indole-2-carboxylic Acid (Enantiomer 1)], the IC50 in the experiment with OPM2 (Homo sapiens, OPM-2, 72 h) is > 3.3e-05 M. On to `Cc1c2c(nn1CCN1CCOCC1)CN(C)CCCn1c(C(=O)O)c(CCCOc3cccc4ccccc34)c3cccc-2c31` (single isomer, unassigned; enantiomer 1) [Example 060, 7,11-dimethyl-10-[2-(morpholin-4-yl)ethyl]-1-[3-(naphthalen-1-yloxy)propyl]-4,5,6,7,8,10-hexahydropyrazolo[3′,4′:7,8][1,5]diazecino[9,10,1-hi]indole-2-carboxylic Acid (Enantiomer 1)], for which the IC50 with OPM2 (Homo sapiens, OPM-2, 72 h) is 1.27e-05 M.

`COCc1nn(C)c2c1-c1cccc3c(CCCOc4cccc5ccccc45)c(C(=O)O)n(c13)CCCN(C)C2` (single isomer, unassigned; enantiomer 2) [Example 1-104, 11-(methoxymethyl)-7,9-dimethyl-1-[3-(1-naphthyloxy)propyl]-4,5,6,7,8,9-hexahydropyrazolo[3′,4′:7,8][1,5]diazecino[9,10,1-hi]indole-2-carboxylic Acid (Enantiomer 2)]: the IC50 in the experiment on MV-4-11 (Homo sapiens, MV4-11, 72 h) came out at 4.44e-06 M.

Regarding `Cc1nn(C)c2c1-c1cccc3c(CCCOc4ccc(F)c5ccccc45)c(C(=O)O)n(c13)CCCCOC2` (single isomer, unassigned; enantiomer 2) [Example 023, 7-{3-[(4-fluoronaphthalen-1-yl)oxy]propyl}-1,3-dimethyl-1,10,11,12,13,15-hexahydropyrazolo[4′3′:9,10][1,6]oxazacycloundecino[8,7,6-hi]indole-8-carboxylic acid-N-ethylethanamine Salt (Enantiomer 2)], the IC50 in the experiment with OPM2 (Homo sapiens, OPM-2, 72 h) stood at 6.79e-06 M; in the experiment on MV-4-11 (Homo sapiens, MV4-11, 72 h) it was 2.29e-06 M. Turning to `Cc1c2c(nn1CCN1CCOCC1)CN(C)CCCn1c(C(=O)O)c(CCCOc3cccc4ccccc34)c3cccc-2c31` (single isomer, unassigned; enantiomer 2) [Example 061, 7,11-dimethyl-10-[2-(morpholin-4-yl)ethyl]-1-[3-(naphthalen-1-yloxy)propyl]-4,5,6,7,8,10-hexahydropyrazolo[3′,4′:7,8][1,5]diazecino[9,10,1-hi]indole-2-carboxylic Acid (Enantiomer 2)], the IC50 with OPM2 worked out at 2.51e-05 M; with MV-4-11 (Homo sapiens, MV4-11, 72 h) it was 8.02e-06 M. Turning to `Cc1ccc2c(CCCOc3cccc4ccccc34)c(C(=O)O)n3c2c1-c1c(nn(C)c1C)CN(C)CCC3` (single isomer, unassigned; enantiomer 2) [Example 074, 7,10,11,12-tetramethyl-1-[3-(naphthalen-1-yloxy)propyl]-4,5,6,7,8,10-hexahydropyrazolo[3′,4′:7,8][1,5]diazecino[9,10,1-hi]indole-2-carboxylic Acid (Enantiomer 2)], in the experiment with MV-4-11 (Homo sapiens, MV4-11, 72 h), the IC50 was found to be 7.04e-06 M.
